Columns and labels:
Assay in all cases: normalised response (% of control), CellTiter-Glo; higher = more viable cells (100 = DMSO, 0 = benzethonium chloride kill control)
Conditions in all cases: incubation time: 72 h
[1] = tested on: BT-474
Summary of the method: (§1)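 In 384-well plates holding compound at 5 concentrations in 10-fold steps over a 10,000-fold range specific to each compound, breast cancer cell lines were seeded as 20 µl suspension and incubated 72 h. CellTox Green fluorescence was measured at 485/520 nm, after which CellTiter-Glo luminescence was measured following 10 min at room temperature. Plate signals were normalised to 0.1 % DMSO (100) and a positive kill control (0), and each value is the normalised signal at a single concentration.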

[2] = tested on: BT-549
Summary of the method: as §1

[3] = tested on: CAL-120
Summary of the method: as §1

[4] = tested on: CAL-148
Summary of the method: as §1

[5] = tested on: CAL-51
Summary of the method: as §1

[6] = tested on: CAL-85-1
Summary of the method: as §1

[7] = tested on: DU-4475
Summary of the method: as §1

[8] = tested on: HCC1143
Summary of the method: as §1

[9] = tested on: HCC1599
Summary of the method: as §1

[10] = tested on: HCC1937
Summary of the method: as §1

[11] = tested on: HDQ-P1
Summary of the method: as §1

[12] = tested on: Hs578T
Summary of the method: as §1

[13] = tested on: MCF-10A
Summary of the method: as §1

[14] = tested on: MDA-MB-231
Summary of the method: as §1

[15] = tested on: MDA-MB-436
Summary of the method: as §1

[16] = tested on: MDA-MB-453
Summary of the method: as §1

[17] = tested on: MDA-MB-468
Summary of the method: as §1

[18] = tested on: MFM-223
Summary of the method: as §1

[19] = tested on: SK-BR-3
Summary of the method: as §1

| SMILES | normalised response [1] [%] | normalised response [2] [%] | normalised response [3] [%] | normalised response [4] [%] | normalised response [5] [%] | normalised response [6] [%] | normalised response [7] [%] | normalised response [8] [%] | normalised response [9] [%] | normalised response [10] [%] | normalised response [11] [%] | normalised response [12] [%] | normalised response [13] [%] | normalised response [14] [%] | normalised response [15] [%] | normalised response [16] [%] | normalised response [17] [%] | normalised response [18] [%] | normalised response [19] [%] |
| --- | --- | --- | --- | --- | --- | --- | --- | --- | --- | --- | --- | --- | --- | --- | --- | --- | --- | --- | --- |
| CO[C@H]1C[C@@H]2CC[C@@H](C)[C@@](O)(O2)C(=O)C(=O)N2CCCC[C@H]2C(=O)O[C@H]([C@H](C)C[C@@H]2CC[C@@H](OC(=O)C(C)(CO)CO)[C@H](OC)C2)CC(=O)[C@H](C)/C=C(\C)[C@@H](O)[C@@H](OC)C(=O)[C@H](C)C[C@H](C)/C=C/C=C/C=C/1C [Temsirolimus] (0.01 nM) | 103 | 98.3 | 99.6 | 110 | 115 | 106 | 103 | 98.1 | 97 | 97.1 | 105 | 96.7 | 101 | 101 | 99.7 | 108 | 106 | 101 | 101 |
| CN(C)C/C=C/C(=O)Nc1cc2c(Nc3ccc(F)c(Cl)c3)ncnc2cc1O[C@H]1CCOC1 [Afatinib] (0.1 nM) | 94.9 | 97.3 | 93.7 | 103 | 75 | 116 | 104 | 93.2 | 99 | 96.6 | 108 | 99.6 | 91.2 | 103 | 85.8 | 111 | 100 | 96.2 | 104 |
| CN1CC[C@H](c2c(O)cc(O)c3c(=O)cc(-c4ccccc4Cl)oc23)[C@H](O)C1 [Alvocidib] (10 nM) | 98.7 | 102 | 92.4 | 104 | 125 | 103 | 104 | 103 | 103 | 101 | 99.2 | 102 | 110 | 101 | 106 | 112 | 99.9 | 106 | 106 |
| Nc1ccn([C@@H]2O[C@H](CO)[C@@H](O)[C@@H]2O)c(=O)n1 [Cytarabine] (10 nM) | 97.6 | 96.8 | 96.4 | 102 | 80.4 | 99 | 99.4 | 99.3 | 90.2 | 96.5 | 107 | 114 | 112 | 99.2 | 105 | 109 | 93.8 | 107 | – |
| Clc1ccc(C(c2ccccc2Cl)C(Cl)Cl)cc1 (stereo unspecified) [Mitotane] (10 nM) | 93.1 | 104 | 101 | 91.2 | 104 | 106 | 103 | 101 | 132 | 99 | 97 | 103 | 96.4 | 99.8 | 89.8 | 109 | 94 | 99 | 98.1 |
| CCN1CCN(c2ccc(Nc3cc(N(C)C(=O)Nc4c(Cl)c(OC)cc(OC)c4Cl)ncn3)cc2)CC1 [NVP-BGJ398] (1 nM) | 94.9 | 96 | 97.2 | 96.1 | 118 | 98.3 | 99 | 98.8 | 88.4 | 104 | 101 | 103 | 108 | 95.8 | 97.7 | 97.7 | 100 | 97.1 | 108 |
| CN1CCC(COc2cnc(-c3cccc(Cn4nc(-c5cccc(C#N)c5)ccc4=O)c3)nc2)CC1 (0.1 nM) | 98.2 | 95.1 | 96.1 | 103 | 82.4 | 92.8 | 93.1 | 94.6 | 92.2 | 94.5 | 99.1 | 96.4 | 89.1 | 98.5 | 81.1 | 105 | 96.9 | 94.2 | 84.6 |
| CC[C@]1(O)C[C@@H]2CN(CCc3c([nH]c4ccccc34)[C@@](C(=O)OC)(c3cc4c(cc3OC)N(C)[C@H]3[C@@](O)(C(=O)OC)[C@H](OC(C)=O)[C@]5(CC)C=CCN6CC[C@]43[C@@H]65)C2)C1 [Vinblastine] (1 nM) | 100 | 87.8 | 95 | 98.8 | 101 | 93 | 96.9 | 97.1 | 101 | 94.9 | 101 | 102 | 103 | 94.7 | 90.7 | 97.2 | 97.9 | 97.6 | 94.7 |
| Nc1nc(Cl)nc2c1ncn2[C@H]1C[C@H](O)[C@@H](CO)O1 [Cladribine] (1 nM) | 99.3 | 97.2 | 97.5 | 103 | 94.2 | 102 | 106 | 104 | 102 | 101 | 97.8 | 105 | 104 | 100 | 102 | 113 | 102 | 105 | – |
| CC(=O)O[C@]1(C(C)=O)CC[C@H]2[C@@H]3C=C(C)C4=CC(=O)CC[C@]4(C)[C@H]3CC[C@@]21C [Megestrol acetate] (10 nM) | 102 | 100 | 98.1 | 86.9 | 83.4 | 98 | 96.6 | 104 | 105 | 95 | 104 | 96.9 | 107 | 101 | 96.3 | 103 | 107 | 97.1 | 102 |
| C=CCNC1=C2C[C@@H](C)C[C@H](OC)[C@H](O)[C@@H](C)/C=C(\C)[C@H](OC(N)=O)[C@@H](OC)/C=C\C=C(/C)C(=O)NC(=CC1=O)C2=O [Tanespimycin] (10 nM) | 90.4 | 98.3 | 97.9 | 96.4 | 120 | 100 | 105 | 105 | 94.4 | 96.5 | 98.2 | 94.4 | 105 | 101 | 92.6 | 92.8 | 94.2 | 101 | 103 |
| Cc1ccc(F)c(NC(=O)Nc2ccc(-c3cccc4[nH]nc(N)c34)cc2)c1 [Linifanib] (1 nM) | 106 | 104 | 102 | 114 | 100 | 103 | 111 | 110 | 112 | 101 | 104 | 98.9 | 109 | 106 | 101 | 113 | 106 | 112 | – |
| CCN1CCN(c2ccc(Nc3cc(N(C)C(=O)Nc4c(Cl)c(OC)cc(OC)c4Cl)ncn3)cc2)CC1 [NVP-BGJ398] (0.1 nM) | 96.7 | 99.8 | 92 | 97.7 | 74.7 | 93.4 | 101 | 98.2 | 98.7 | 95.6 | 101 | 97.3 | 101 | 95.4 | 97.6 | 84.1 | 88.2 | 96.6 | 99 |
| Cc1c2oc3c(C)ccc(C(=O)N[C@@H]4C(=O)N[C@H](C(C)C)C(=O)N5CCC[C@H]5C(=O)N(C)CC(=O)N(C)[C@@H](C(C)C)C(=O)O[C@@H]4C)c3nc-2c(C(=O)N[C@@H]2C(=O)N[C@H](C(C)C)C(=O)N3CCC[C@H]3C(=O)N(C)CC(=O)N(C)[C@@H](C(C)C)C(=O)O[C@@H]2C)c(N)c1=O [Dactinomycin] (1 nM) | 79.4 | 71.9 | 90.3 | 81.8 | 99.9 | 90.8 | 97 | 80.8 | 102 | 79.9 | 71.4 | 105 | 77.8 | 97.7 | 87 | 94 | 60.3 | 105 | – |
| CC(=O)O[C@]1(C(C)=O)CC[C@H]2[C@@H]3C=C(C)C4=CC(=O)CC[C@]4(C)[C@H]3CC[C@@]21C [Megestrol acetate] (1 nM) | 95.9 | 97.7 | 94.9 | 99.9 | 120 | 98.9 | 97.5 | 95.2 | 96.5 | 95.4 | 99.8 | 96.8 | 101 | 98.5 | 101 | 131 | 88.8 | 98 | 99.2 |
| CS(=O)(=O)c1ccc(C(=O)Nc2ccc(Cl)c(-c3ccccn3)c2)c(Cl)c1 [Vismodegib] (10 nM) | 90.2 | 96.4 | 95.2 | 91 | 126 | 102 | 96.4 | 93.9 | 100 | 96.4 | 99.4 | 95.4 | 90.3 | 90.8 | 91.5 | 89.4 | 92.9 | 94.3 | 105 |
| C[C@]1(c2nc3c(C(N)=O)cccc3[nH]2)CCCN1 [Veliparib] (10 nM) | 103 | 100 | 102 | 98.8 | 118 | 106 | 104 | 105 | 92.1 | 101 | 98.7 | 98.8 | 105 | 99 | 99 | 109 | 108 | 99.7 | 110 |
| O=C(c1ccc(C(=O)N2CCC(N3CCCC3)CC2)c(Nc2ccccc2)c1)N1CCC(N2CCCC2)CC1 [UNC1215] (30 nM) | 98.7 | 97.8 | 102 | 95 | 77.9 | 96.7 | 97 | 97.3 | 118 | 96.7 | 94.3 | 103 | 103 | 90.2 | 104 | 91.5 | 97.4 | 91.4 | 100 |
| COc1cccc2c1C(=O)c1c(O)c3c(c(O)c1C2=O)C[C@@](O)(C(=O)CO)C[C@@H]3O[C@H]1C[C@H](N)[C@H](O)[C@H](C)O1 [Doxorubicin] (1 nM) | 101 | 94.2 | 93.6 | 95.7 | 107 | 103 | 108 | 99.1 | 120 | 98.6 | 101 | 100 | 110 | 99.5 | 107 | 113 | 104 | 105 | – |

— the supplement of paper PMC4862054
